Assay results from patent US12552825B2 (Zikani Therapeutics, Inc., priority 2019, dated 2026).
Converted amounts (≈) assume the structure as drawn.

Experiments:
Type in all cases: cell-based
S. aureus MP-12 = experiment: microbe, parasite or virus in culture; settings: Staphylococcus aureus, MP12, read-out: MIC S. aureus MP-12
E. coli MP-4 = experiment: MIC determination by CLSI broth dilution, E. coli MP-4; settings: strain MP-4; for MIC: Escherichia coli, MP4, CLSI broth dilution
K. pneumoniae MP-546 = experiment: MIC determination by CLSI broth dilution, K. pneumoniae MP-546; settings: strain MP-546; for MIC: Klebsiella pneumoniae, MP546, CLSI broth dilution
K. pneumoniae MP-648 = experiment: MIC determination by CLSI broth dilution, K. pneumoniae MP-648; settings: strain MP-648; for MIC: Klebsiella pneumoniae, MP648, CLSI broth dilution
P. aeruginosa MP-3 = experiment: MIC determination by CLSI broth dilution, P. aeruginosa MP-3; settings: Pseudomonas aeruginosa, MP3, strain MP-3
A. baumannii MP-15 = experiment: MIC determination by CLSI broth dilution, A. baumannii MP-15; settings: Acinetobacter baumannii, MP15, strain MP-15, read-out: MIC A. baumanii MP-15

| Structure (SMILES) | MIC (S. aureus MP-12) | MIC (E. coli MP-4) | MIC (K. pneumoniae MP-546) | MIC (K. pneumoniae MP-648) | MIC (P. aeruginosa MP-3) | MIC (A. baumannii MP-15) | MIC E. coli MP-4 (E. coli MP-4; CLSI broth dilution) | MIC K. pneumoniae MP-546 (K. pneumoniae MP-546; CLSI broth dilution) | MIC K. pneumoniae MP-648 (K. pneumoniae MP-648; CLSI broth dilution) |
| --- | --- | --- | --- | --- | --- | --- | --- | --- | --- |
| CCN1C[C@H](C)C[C@@](C)(OC)[C@H](O[C@@H]2O[C@H](C)C[C@H](N(C)C)[C@H]2O)[C@@H](C)C(=O)C(C)(C)C(=O)OC[C@@H]1CCCN(C)C(C)C [Compound 10, (3S,6R,8R,9R,10R)-9-(((2S,3R,4S,6R)-4-(dimethylamino)-3-hydroxy-6-methyltetrahydro-2H-pyran-2-yl)oxy)-4-ethyl-3-(3-(isopropyl(methyl)amino)propyl)-8-methoxy-6,8,10,12,12-pentamethyl-1-oxa-4-azacyclotridecane-11,13-dione] | < 4 µg/mL | < 4 µg/mL | < 4 µg/mL | < 4 µg/mL | > 32 µg/mL | > 32 µg/mL |  |  |  |
| CO[C@]1(C)C[C@@H](C)CN(C)[C@H](CCCN(C)C(C)C)COC(=O)C(C)(C)C(=O)[C@H](C)[C@H]1O[C@@H]1O[C@H](C)C[C@H](N(C)C)[C@H]1O [Compound 12, (3R,6R,8R,9R,10R)-9-(((2S,3R,4S,6R)-4-(dimethylamino)-3-hydroxy-6-methyltetrahydro-2H-pyran-2-yl)oxy)-3-(3-(isopropyl(methyl)amino)propyl)-8-methoxy-4,6,8,10,12,12-hexamethyl-1-oxa-4-azacyclotridecane-11,13-dione] | 4 to 32 µg/mL (≈ 6.52 to 52.1 µM) | < 4 µg/mL | < 4 µg/mL | < 4 µg/mL | > 32 µg/mL | > 32 µg/mL |  |  |  |
| CCCN1C[C@H](C)C[C@@](C)(OC)[C@H](O[C@@H]2O[C@H](C)C[C@H](N(C)C)[C@H]2O)[C@@H](C)C(=O)C(C)(C)C(=O)OC[C@@H]1CCCN(C)C(C)C [Compound 18, (3S,6R,8R,9R,10R)-9-(((2S,3R,4S,6R)-4-(dimethylamino)-3-hydroxy-6-methyltetrahydro-2H-pyran-2-yl)oxy)-3-(3-(isopropyl(methyl)amino)propyl)-8-methoxy-6,8,10,12,12-pentamethyl-4-propyl-1-oxa-4-azacyclotridecane-11,13-dione] | < 4 µg/mL | < 4 µg/mL | < 4 µg/mL | < 4 µg/mL | > 32 µg/mL | > 32 µg/mL |  |  |  |
| CCCN1C[C@H](C)C[C@@](C)(OC)[C@H](O[C@@H]2O[C@H](C)C[C@H](N(C)C)[C@H]2O)[C@@H](C)C(=O)C(C)(C)C(=O)OC[C@H]1CCCN(C)C [Compound 21, (3R,6R,8R,9R,10R)-9-(((2S,3R,4S,6R)-4-(dimethylamino)-3-hydroxy-6-methyltetrahydro-2H-pyran-2-yl)oxy)-3-(3-(dimethylamino)propyl)-8-methoxy-6,8,10,12,12-pentamethyl-4-propyl-1-oxa-4-azacyclotridecane-11,13-dione] | 4 to 32 µg/mL (≈ 6.52 to 52.1 µM) | < 4 µg/mL | < 4 µg/mL | < 4 µg/mL | < 4 µg/mL | > 32 µg/mL |  |  |  |
| CCCCCCCN1CCC([C@@H](O)[C@H]2COC(=O)C(C)(C)C(=O)[C@H](C)[C@@H](O[C@@H]3O[C@H](C)C[C@H](N(C)C)[C@H]3O)[C@](C)(OC)C[C@@H](C)CN2C)CC1 [Compound 22] | > 32 µg/mL | < 4 µg/mL | 4 to 32 µg/mL (≈ 5.62 to 44.9 µM) | > 32 µg/mL | > 32 µg/mL | > 32 µg/mL |  |  |  |
| CO[C@]1(C)C[C@@H](C)CN(C)[C@@H]([C@H](O)C2CCN(CC3CC3)CC2)COC(=O)C(C)(C)C(=O)[C@H](C)[C@H]1O[C@@H]1O[C@H](C)C[C@H](N(C)C)[C@H]1O [Compound 23, (3R,6R,8R,9R,10R)-3-((R)-(1-(cyclopropylmethyl)piperidin-4-yl)(hydroxy)methyl)-9-(((2S,3R,4S,6R)-4-(dimethylamino)-3-hydroxy-6-methyltetrahydro-2H-pyran-2-yl)oxy)-8-methoxy-4,6,8,10,12,12-hexamethyl-1-oxa-4-azacyclotridecane-11,13-dione] | 4 to 32 µg/mL (≈ 5.99 to 47.9 µM) | 4 to 32 µg/mL (≈ 5.99 to 47.9 µM) | 4 to 32 µg/mL (≈ 5.99 to 47.9 µM) | 4 to 32 µg/mL (≈ 5.99 to 47.9 µM) | > 32 µg/mL | > 32 µg/mL |  |  |  |
| CCCN1CCC([C@@H](O)[C@H]2COC(=O)C(C)(C)C(=O)[C@H](C)[C@@H](O[C@@H]3O[C@H](C)C[C@H](N(C)C)[C@H]3O)[C@](C)(OC)C[C@@H](C)CN2C)CC1 [Compound 24] | 4 to 32 µg/mL (≈ 6.1 to 48.8 µM) | 4 to 32 µg/mL (≈ 6.1 to 48.8 µM) | 4 to 32 µg/mL (≈ 6.1 to 48.8 µM) | > 32 µg/mL | > 32 µg/mL | > 32 µg/mL |  |  |  |
| CO[C@]1(C)C[C@@H](C)CN(C)[C@@H]([C@H](O)C2CCN(CC3CCCCC3)CC2)COC(=O)C(C)(C)C(=O)[C@H](C)[C@H]1O[C@@H]1O[C@H](C)C[C@H](N(C)C)[C@H]1O [Compound 25] | > 32 µg/mL | < 4 µg/mL | 4 to 32 µg/mL (≈ 5.63 to 45.1 µM) | 4 to 32 µg/mL (≈ 5.63 to 45.1 µM) | > 32 µg/mL | > 32 µg/mL |  |  |  |
| CO[C@]1(C)C[C@@H](C)CN(C)[C@H]([C@@H](O)C2CCN(CC3CC3)CC2)COC(=O)C(C)(C)C(=O)[C@H](C)[C@H]1O[C@@H]1O[C@H](C)C[C@H](N(C)C)[C@H]1O [Compound 26] | > 32 µg/mL |  |  |  | > 32 µg/mL | > 32 µg/mL | +++ (values less than or equal to 4 mg/L) | ++ (values of greater than 4 mg/L and less than or equal to 32 mg/L) | ++ (values of greater than 4 mg/L and less than or equal to 32 mg/L) |
| CO[C@]1(C)C[C@@H](C)CN(C)[C@H]([C@@H](O)C2CCN(C(C)C)CC2)COC(=O)C(C)(C)C(=O)[C@H](C)[C@H]1O[C@@H]1O[C@H](C)C[C@H](N(C)C)[C@H]1O [Compound 27] | > 32 µg/mL | 4 to 32 µg/mL (≈ 6.1 to 48.8 µM) | 4 to 32 µg/mL (≈ 6.1 to 48.8 µM) | > 32 µg/mL | > 32 µg/mL | > 32 µg/mL |  |  |  |
| COCO[C@@H](C1CCN(CC2CC2)CC1)[C@@H]1COC(=O)C(C)(C)C(=O)[C@H](C)[C@@H](O[C@@H]2O[C@H](C)C[C@H](N(C)C)[C@H]2O)[C@](C)(OC)C[C@@H](C)CN1C [Compound 29] | 4 to 32 µg/mL (≈ 5.62 to 44.9 µM) | 4 to 32 µg/mL (≈ 5.62 to 44.9 µM) | > 32 µg/mL | > 32 µg/mL | > 32 µg/mL | > 32 µg/mL |  |  |  |
| COCCCN1CCC(C[C@@H]2COC(=O)C(C)(C)C(=O)[C@H](C)[C@@H](O[C@@H]3O[C@H](C)C[C@H](N(C)C)[C@H]3O)[C@](C)(OC)C[C@@H](C)CN2C)CC1 [Compound 50] | 4 to 32 µg/mL (≈ 5.97 to 47.8 µM) | < 4 µg/mL | < 4 µg/mL | < 4 µg/mL | > 32 µg/mL | > 32 µg/mL |  |  |  |
| CO[C@]1(C)C[C@@H](C)CN(C)[C@H](CC2CCNCC2)COC(=O)C(C)(C)C(=O)[C@H](C)[C@H]1O[C@@H]1O[C@H](C)C[C@H](N(C)C)[C@H]1O [Compound 51] | > 32 µg/mL | 4 to 32 µg/mL (≈ 6.69 to 53.5 µM) | > 32 µg/mL | > 32 µg/mL | > 32 µg/mL | > 32 µg/mL |  |  |  |
| CO[C@]1(C)C[C@@H](C)CN(C)[C@H](CC2CCN(C(C)C)CC2)COC(=O)C(C)(C)C(=O)[C@H](C)[C@H]1O[C@@H]1O[C@H](C)C[C@H](N(C)C)[C@H]1O [Compound 52] | 4 to 32 µg/mL (≈ 6.25 to 50 µM) | < 4 µg/mL | < 4 µg/mL | 4 to 32 µg/mL (≈ 6.25 to 50 µM) | > 32 µg/mL | > 32 µg/mL |  |  |  |
| CCC(CCNCC(C)C)C[C@@H]1COC(=O)C(C)(C)C(=O)[C@H](C)[C@@H](O[C@@H]2O[C@H](C)C[C@H](N(C)C)[C@H]2O)[C@](C)(OC)C[C@@H](C)CN1C (stereo partly drawn) [Compound 53] | 4 to 32 µg/mL (≈ 6.1 to 48.8 µM) | < 4 µg/mL | < 4 µg/mL | < 4 µg/mL | > 32 µg/mL | > 32 µg/mL |  |  |  |
| CO[C@]1(C)C[C@@H](C)CN(C)[C@H](CC2CCN(CC3CCCCC3)CC2)COC(=O)C(C)(C)C(=O)[C@H](C)[C@H]1O[C@@H]1O[C@H](C)C[C@H](N(C)C)[C@H]1O [Compound 55] | 4 to 32 µg/mL (≈ 5.76 to 46.1 µM) | < 4 µg/mL | < 4 µg/mL | < 4 µg/mL | > 32 µg/mL | > 32 µg/mL |  |  |  |
| CCCCCCCN1CCC(C[C@@H]2COC(=O)C(C)(C)C(=O)[C@H](C)[C@@H](O[C@@H]3O[C@H](C)C[C@H](N(C)C)[C@H]3O)[C@](C)(OC)C[C@@H](C)CN2C)CC1 [Compound 56] | 4 to 32 µg/mL (≈ 5.75 to 46 µM) | < 4 µg/mL | < 4 µg/mL | < 4 µg/mL | > 32 µg/mL | > 32 µg/mL |  |  |  |
| CO[C@]1(C)C[C@@H](C)CN(C)[C@H](CC2CCN(CC3CC3)CC2)COC(=O)C(C)(C)C(=O)[C@H](C)[C@H]1O[C@@H]1O[C@H](C)C[C@H](N(C)C)[C@H]1O [Compound 57] | 4 to 32 µg/mL (≈ 6.14 to 49.1 µM) | < 4 µg/mL | < 4 µg/mL | < 4 µg/mL | > 32 µg/mL | > 32 µg/mL |  |  |  |
| CCC(CC)CN1CCC(C[C@@H]2COC(=O)C(C)(C)C(=O)[C@H](C)[C@@H](O[C@@H]3O[C@H](C)C[C@H](N(C)C)[C@H]3O)[C@](C)(OC)C[C@@H](C)CN2C)CC1 [Compound 58] | 4 to 32 µg/mL (≈ 5.87 to 46.9 µM) | < 4 µg/mL | < 4 µg/mL | < 4 µg/mL | > 32 µg/mL | > 32 µg/mL |  |  |  |
| CCCN1CC=C(C[C@@H]2COC(=O)C(C)(C)C(=O)[C@H](C)[C@@H](O[C@@H]3O[C@H](C)C[C@H](N(C)C)[C@H]3O)[C@](C)(OC)C[C@@H](C)CN2C)CC1 [Compound 59] | < 4 µg/mL | < 4 µg/mL | < 4 µg/mL | 4 to 32 µg/mL (≈ 6.27 to 50.2 µM) | > 32 µg/mL | > 32 µg/mL |  |  |  |
| CO[C@]1(C)C[C@@H](C)CN(C)[C@H](CC2CCN(C3CCCC3)CC2)COC(=O)C(C)(C)C(=O)[C@H](C)[C@H]1O[C@@H]1O[C@H](C)C[C@H](N(C)C)[C@H]1O [Compound 60] | 4 to 32 µg/mL (≈ 6.01 to 48.1 µM) | < 4 µg/mL | < 4 µg/mL | < 4 µg/mL | > 32 µg/mL | > 32 µg/mL |  |  |  |
| CO[C@]1(C)C[C@@H](C)CN(C)[C@H](CC2CCN(Cc3ccncc3)CC2)COC(=O)C(C)(C)C(=O)[C@H](C)[C@H]1O[C@@H]1O[C@H](C)C[C@H](N(C)C)[C@H]1O [Compound 61] | 4 to 32 µg/mL (≈ 5.81 to 46.4 µM) | < 4 µg/mL | 4 to 32 µg/mL (≈ 5.81 to 46.4 µM) | 4 to 32 µg/mL (≈ 5.81 to 46.4 µM) | > 32 µg/mL | > 32 µg/mL |  |  |  |
